Measured values reported in US20230212120A1, “SMALL MOLECULE INHIBITORS OF GRK5 AND GRK5 SUBFAMILY MEMBERS AND USES THEREOF” (The Regents of the University of Michigan, priority 2020, published 2023).
“And” between values parts separate entries of the source, which are not always exact repeats. Equal entries are not always repeated. “Also recorded” adds a separate entry of the source. Where two headings read alike, the source gives them in different places.

Key:
[1] = test system: FGFR1/2; test: Kinome panel, FGFR1/2; assay type: biochemical; settings: tested at 1 μM
[2] = target: GRK6 (Homo sapiens, UniProt P43250); test: Kinome panel, GRK6; assay type: biochemical; settings: tested at 1 μM
Sequence of GRK6 (P43250 whole entry, species assumed): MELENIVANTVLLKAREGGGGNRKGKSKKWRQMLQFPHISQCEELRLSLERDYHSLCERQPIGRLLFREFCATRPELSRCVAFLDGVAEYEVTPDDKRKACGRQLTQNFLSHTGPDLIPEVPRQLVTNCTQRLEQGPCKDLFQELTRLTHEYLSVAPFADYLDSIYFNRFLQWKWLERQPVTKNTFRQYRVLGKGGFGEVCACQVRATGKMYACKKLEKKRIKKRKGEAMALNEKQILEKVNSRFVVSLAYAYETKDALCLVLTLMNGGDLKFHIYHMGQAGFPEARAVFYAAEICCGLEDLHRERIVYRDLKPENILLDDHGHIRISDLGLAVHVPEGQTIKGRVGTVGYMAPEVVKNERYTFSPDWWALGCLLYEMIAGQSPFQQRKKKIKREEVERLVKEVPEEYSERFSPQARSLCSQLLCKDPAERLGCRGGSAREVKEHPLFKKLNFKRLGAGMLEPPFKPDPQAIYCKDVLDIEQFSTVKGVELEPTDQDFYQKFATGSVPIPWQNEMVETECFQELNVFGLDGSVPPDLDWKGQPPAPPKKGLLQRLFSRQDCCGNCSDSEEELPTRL

[3] = target: EGFR (Homo sapiens, UniProt P00533); test: Kinome panel, EGFR; assay type: biochemical; settings: tested at 1 μM
Sequence of EGFR (P00533 25-1210, species assumed): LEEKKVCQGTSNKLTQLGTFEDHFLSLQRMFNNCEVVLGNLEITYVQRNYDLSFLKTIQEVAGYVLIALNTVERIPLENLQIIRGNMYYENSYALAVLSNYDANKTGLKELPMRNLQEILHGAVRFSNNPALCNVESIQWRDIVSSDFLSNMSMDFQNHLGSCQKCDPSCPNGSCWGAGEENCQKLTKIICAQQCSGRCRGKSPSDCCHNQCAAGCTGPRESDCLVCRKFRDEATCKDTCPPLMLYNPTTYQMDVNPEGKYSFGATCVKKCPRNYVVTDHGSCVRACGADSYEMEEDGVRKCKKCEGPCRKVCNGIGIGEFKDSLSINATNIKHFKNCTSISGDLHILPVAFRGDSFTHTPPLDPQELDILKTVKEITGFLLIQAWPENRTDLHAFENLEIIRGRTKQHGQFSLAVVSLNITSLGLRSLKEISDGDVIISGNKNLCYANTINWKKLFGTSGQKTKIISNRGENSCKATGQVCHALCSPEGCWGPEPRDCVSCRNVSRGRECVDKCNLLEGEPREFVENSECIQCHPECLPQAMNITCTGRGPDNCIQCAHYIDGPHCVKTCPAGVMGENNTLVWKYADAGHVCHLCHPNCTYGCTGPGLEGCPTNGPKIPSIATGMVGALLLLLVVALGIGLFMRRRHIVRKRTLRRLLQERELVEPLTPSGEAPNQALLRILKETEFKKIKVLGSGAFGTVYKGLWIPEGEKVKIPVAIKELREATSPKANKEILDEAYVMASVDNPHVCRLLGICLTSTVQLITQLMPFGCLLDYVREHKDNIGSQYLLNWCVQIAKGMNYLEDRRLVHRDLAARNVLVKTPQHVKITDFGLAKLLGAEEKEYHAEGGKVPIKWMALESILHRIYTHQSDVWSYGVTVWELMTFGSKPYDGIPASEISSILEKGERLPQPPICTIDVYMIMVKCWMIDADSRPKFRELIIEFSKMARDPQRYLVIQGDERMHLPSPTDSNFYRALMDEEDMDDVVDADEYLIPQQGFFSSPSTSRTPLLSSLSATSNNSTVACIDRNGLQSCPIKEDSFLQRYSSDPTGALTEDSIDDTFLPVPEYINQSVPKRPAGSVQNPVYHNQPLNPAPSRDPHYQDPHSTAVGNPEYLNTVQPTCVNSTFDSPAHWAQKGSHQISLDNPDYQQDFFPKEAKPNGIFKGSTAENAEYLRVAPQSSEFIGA

[4] = test system: PDGFR; test: Kinome panel, PDGFR; assay type: biochemical; settings: tested at 1 μM
[5] = target: T1, bovine GRK2 (Bos taurus, UniProt P21146); test: radiometric GRK2 inhibition assay (tubulin phosphorylation)
T1 sequence (P21146 1-689): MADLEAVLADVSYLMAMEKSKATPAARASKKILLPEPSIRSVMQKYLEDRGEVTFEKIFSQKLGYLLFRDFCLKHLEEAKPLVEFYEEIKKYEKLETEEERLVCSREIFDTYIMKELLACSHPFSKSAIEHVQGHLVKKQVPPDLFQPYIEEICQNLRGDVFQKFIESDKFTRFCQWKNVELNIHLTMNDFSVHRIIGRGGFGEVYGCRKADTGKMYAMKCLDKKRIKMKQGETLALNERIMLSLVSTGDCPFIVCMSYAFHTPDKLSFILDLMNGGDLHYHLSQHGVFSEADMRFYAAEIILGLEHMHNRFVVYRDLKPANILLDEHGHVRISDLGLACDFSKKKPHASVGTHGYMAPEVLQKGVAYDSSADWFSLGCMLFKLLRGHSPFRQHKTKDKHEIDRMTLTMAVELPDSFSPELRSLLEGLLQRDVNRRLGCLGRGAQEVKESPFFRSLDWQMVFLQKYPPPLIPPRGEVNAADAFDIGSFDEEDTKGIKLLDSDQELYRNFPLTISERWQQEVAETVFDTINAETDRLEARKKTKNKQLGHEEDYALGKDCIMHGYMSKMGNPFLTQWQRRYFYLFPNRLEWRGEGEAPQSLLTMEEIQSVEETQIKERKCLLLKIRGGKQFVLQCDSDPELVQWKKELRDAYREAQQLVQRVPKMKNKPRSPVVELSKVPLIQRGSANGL

[6] = target: GRK5 (Cys474) (Homo sapiens, UniProt P34947); test: Intact protein MS, covalent labelling of GRK5; assay type: binding
Sequence of GRK5 (Cys474) (P34947 whole entry): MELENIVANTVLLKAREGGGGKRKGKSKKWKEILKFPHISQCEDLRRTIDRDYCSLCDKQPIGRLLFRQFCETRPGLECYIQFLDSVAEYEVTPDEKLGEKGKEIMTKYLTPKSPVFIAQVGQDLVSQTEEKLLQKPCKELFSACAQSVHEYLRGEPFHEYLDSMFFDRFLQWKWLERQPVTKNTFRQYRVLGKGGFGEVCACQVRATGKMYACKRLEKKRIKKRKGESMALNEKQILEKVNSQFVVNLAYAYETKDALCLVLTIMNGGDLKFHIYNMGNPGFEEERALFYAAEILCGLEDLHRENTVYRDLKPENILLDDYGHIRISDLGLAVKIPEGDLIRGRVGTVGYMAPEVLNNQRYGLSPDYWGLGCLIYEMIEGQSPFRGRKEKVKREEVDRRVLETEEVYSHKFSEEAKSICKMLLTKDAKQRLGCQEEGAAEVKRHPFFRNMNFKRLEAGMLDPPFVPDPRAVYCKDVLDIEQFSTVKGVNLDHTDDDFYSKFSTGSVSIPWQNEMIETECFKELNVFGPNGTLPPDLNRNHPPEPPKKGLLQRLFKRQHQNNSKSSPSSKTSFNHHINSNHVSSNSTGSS

[7] = target: T2, GRK5 (Homo sapiens, UniProt P34947); test: radiometric GRK5 inhibition assay (tubulin phosphorylation); settings: for IC50: read-out: GRK5 IC50
Target sequence in this assay (P34947 whole entry): as above

[8] = target: KIT (Homo sapiens, UniProt P10721); test: Kinome panel, KIT; assay type: biochemical; settings: tested at 1 μM
Sequence of KIT (P10721 26-976, species assumed): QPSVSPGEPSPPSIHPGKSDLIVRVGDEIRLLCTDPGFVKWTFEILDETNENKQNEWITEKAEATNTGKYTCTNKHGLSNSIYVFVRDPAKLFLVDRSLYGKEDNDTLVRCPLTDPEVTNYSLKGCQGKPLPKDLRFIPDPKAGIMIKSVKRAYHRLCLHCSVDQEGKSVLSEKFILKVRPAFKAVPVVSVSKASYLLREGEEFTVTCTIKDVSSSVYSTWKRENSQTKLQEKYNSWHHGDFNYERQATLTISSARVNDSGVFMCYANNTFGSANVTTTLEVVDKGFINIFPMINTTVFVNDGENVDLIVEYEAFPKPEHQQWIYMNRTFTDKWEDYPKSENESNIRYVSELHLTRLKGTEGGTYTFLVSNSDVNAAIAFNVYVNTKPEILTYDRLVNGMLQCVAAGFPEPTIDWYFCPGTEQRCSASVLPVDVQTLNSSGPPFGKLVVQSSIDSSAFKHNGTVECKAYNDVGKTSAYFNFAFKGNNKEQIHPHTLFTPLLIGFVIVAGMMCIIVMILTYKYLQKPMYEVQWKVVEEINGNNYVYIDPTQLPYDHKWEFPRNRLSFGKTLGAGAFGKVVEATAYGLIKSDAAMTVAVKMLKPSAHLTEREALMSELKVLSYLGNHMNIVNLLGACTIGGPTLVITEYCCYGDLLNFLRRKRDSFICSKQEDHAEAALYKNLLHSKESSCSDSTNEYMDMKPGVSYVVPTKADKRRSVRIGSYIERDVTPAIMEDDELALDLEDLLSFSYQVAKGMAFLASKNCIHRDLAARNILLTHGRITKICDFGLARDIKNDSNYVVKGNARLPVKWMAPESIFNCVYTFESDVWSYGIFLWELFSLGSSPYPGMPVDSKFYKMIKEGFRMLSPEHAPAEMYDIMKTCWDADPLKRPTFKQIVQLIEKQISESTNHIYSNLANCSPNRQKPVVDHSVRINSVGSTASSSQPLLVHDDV

[9] = target: T2, GRK5; test: Kinome panel, GRK5; assay type: biochemical; settings: tested at 1 μM
Target sequence in this assay (P34947 whole entry, species assumed): as the sequence (P34947 whole entry) above

[10] = target: PKA (Homo sapiens, UniProt P17612); test: PKA inhibition assay (ADP-Glo); assay type: biochemical
Procedure: The PKA inhibition assays were performed with the ADP-Glo system (Promega Corporation) according to the manufactory's instruction. […] After the initial reaction, ADP-Glo reagent was added to the reaction and allowed to incubate for an additional 40 min. Lastly, the kinase detection reagent was added and allowed to incubate for 30 min, and the luminescence was measured with a FlexStation 3 Multi-mode Microplate Reader (Molecular Devices). All data was analyzed in the same way as GRK inhibition assay. Experiments were performed three times in duplicate.
Standard control compounds are run during each assay to assess consistency across time, experimenters, and subtle changes in assay conditions that are sometimes required to keep some of the compounds soluble and disperse (such as through addition of DDM or 3% DMSO). Paroxetine were used as controls for GRK2 and PKA, and CCG215022 for GRK5.

[11] = test system: kinome; test: Kinome-wide selectivity panel; assay type: biochemical; settings: tested at 10 nM, in relation to 100 nM and 1 μM panels
[12] = Metabolic stability in human liver microsomes; assay type: in vitro ADME; settings: 4-fluoro pendant added to phenyl ring
[13] = Thermodynamic solubility (Analiza Inc.); assay type: physicochemical; settings: Water
Source text: Experimental data collected by Analiza Inc. Experimental values represent an average of n=1 experiments.

[14] = read-out: GRK2 IC50, Table 1, μM ± SD
[15] = intact protein MS, incubation time not stated
[16] = intact protein MS, 30 min incubation
[17] = read-out: GRK2 IC50, Table 2, μM ± SD

C#CCNC(=O)c1c(C)[nH]c(/C=C2\C(=O)Nc3ccc(C(=O)N[C@H](C)c4ccccc4)cc32)c1C [Compound 5c, (R,Z)-3-((3,5-dimethyl-4-(prop-2-yn-1-ylcarbamoyl)-1H-pyrrol-2-yl)methylene)-2-oxo-N-(1-phenylethyl)indoline-5-carboxamide]
inhibition of FGFR1/2 [1]: 92-98%
inhibition at 1 µM [2]: 94%
inhibition at 1 µM [3]: 17%
inhibition of PDGFR [4]: 99-100%
IC50 [5, 14]: 44 ± 40 µM

CC#CC(=O)Nc1c(C)[nH]c(/C=C2\C(=O)Nc3ccc(C(=O)N[C@H](C)c4ccccc4)cc32)c1C [Compound 9a, (R,Z)-3-((4-(but-2-ynamido)-3,5-dimethyl-1H-pyrrol-2-yl)methylene)-2-oxo-N-(1-phenylethyl)indoline-5-carboxamide]
covalent labelling of GRK5 [6, 15]: did not show any covalent engagement
potency / affinity against GRK5 in words [7]: low μM potency
GRK2/GRK5 ([7]; Table 1, ratio of IC50 values): 61
IC50 ([7]; Table 1, μM ± SD): 2.5 ± 0.8 µM
IC50 [5, 14]: 150 ± 30 µM

Cc1[nH]c(/C=C2\C(=O)Nc3ccc(C(=O)N[C@H](C)c4ccccc4)cc32)c(C)c1NC(=O)CBr [Compound 9g, (R,Z)-3-((4-(2-bromoacetamido)-3,5-dimethyl-1H-pyrrol-2-yl)methylene)-2-oxo-N-(1-phenylethyl)indoline-5-carboxamide]
inhibition of FGFR1/2 [1]: 94-98%
inhibition at 1 µM [8]: 84%
inhibition at 1 µM [2]: 97%
inhibition at 1 µM [9]: 93%
IC50 ([10]; Table 1, μM ± SD): > 250 µM
inhibition at 1 µM [3]: 17%
fraction of GRK5 labelled [6, 16]: 50%
covalent labelling of GRK5 [6, 15]: able to label GRK5 at Cys474; also recorded: able to form a covalent interaction
kinome-wide selectivity [11]: far more selective across the kinome
inhibition of PDGFR [4]: 99%
selectivity for GRK5 over GRK2 [7]: 1400 fold
GRK2/GRK5 ([7]; Table 1, ratio of IC50 values): 1400
IC50 [7]: 0.0086 µM
IC50 [5, 14]: 12 ± 20 µM

Cc1[nH]c(/C=C2\C(=O)Nc3ccc(C(=O)N[C@H](C)c4ccc(F)cc4)cc32)c(C)c1NC(=O)CCl [Compound 9j, (R,Z)-3-((4-(2-chloroacetamido)-3,5-dimethyl-1H-pyrrol-2-yl)methylene)-N-(1-(4-fluorophenyl)ethyl)-2-oxoindoline-5-carboxamide]
increase of stability in HLMs [12]: 1.4 fold
IC50 ([10]; Table 2, μM ± SD): > 250 µM
covalent labelling of GRK5 [6, 16]: form a covalent interaction with Cys474; also recorded: fully labels GRK5
covalent labelling of GRK5 [6, 15]: able to form a covalent interaction
pH After Assay ([13]; solubility assay): 3
solubility thermodynamic ([13]; thermodynamic from solid, n=1): 90.7 µM and 44.8 µg/mL
IC50 [5, 17]: 4.8 ± 3 µM

Cc1[nH]c(/C=C2\C(=O)Nc3ccc(C(=O)NCc4ccccc4)cc32)c(C)c1NC(=O)CCl [Compound 9q, (Z)—N-benzyl-3-((4-(2-chloroacetamido)-3,5-dimethyl-1H-pyrrol-2-yl)methylene)-2-oxoindoline-5-carboxamide]
IC50 ([10]; Table 2, μM ± SD): > 250 µM
covalent labelling of GRK5 ([6]; intact MS, overnight / 8 hours): partial labelling
IC50 [5, 17]: 13 ± 3 µM

Cc1[nH]c(/C=C2\C(=O)Nc3ccc(C(=O)N[C@@H](c4ccccc4)C(C)C)cc32)c(C)c1NC(=O)CCl [Compound 9r, (R,Z)-3-((4-(2-chloroacetamido)-3,5-dimethyl-1H-pyrrol-2-yl)methylene)-N-(2-methyl-1-phenylpropyl)-2-oxoindoline-5-carboxamide]
covalent labelling of GRK5 ([6]; intact MS, overnight / 8 hours): partial labelling
GRK2/GRK5 ([7]; Table 2, ratio of IC50 values): 15
IC50 [5]: 190 ± 70 µM

Cc1[nH]c(/C=C2\C(=O)Nc3ccc(C(=O)NC(C)(C)c4ccccc4)cc32)c(C)c1NC(=O)CCl [Compound 9s, (Z)-3-((4-(2-chloroacetamido)-3,5-dimethyl-1H-pyrrol-2-yl)methylene)-2-oxo-N-(2-phenylpropan-2-yl)indoline-5-carboxamide]
IC50 ([10]; Table 2, μM ± SD): > 250 µM
covalent labelling of GRK5 ([6]; intact MS, overnight / 8 hours): completes labelling of GRK5
GRK2/GRK5 ([7]; Table 2, ratio of IC50 values): 260
